This assay concerns the target Epidermal growth factor receptor [695-1022,T790M,C797S,L858R] (Homo sapiens, UniProt P00533, C797S/L858R/T790M). As to the kind of experiment: Biochemical EGFR Inhibition Assays ([…]). The arrangement: 695-1022.

Chain of Epidermal growth factor receptor [695-1022,T790M,C797S,L858R] (P00533 695-1022 T790M/C797S/L858R): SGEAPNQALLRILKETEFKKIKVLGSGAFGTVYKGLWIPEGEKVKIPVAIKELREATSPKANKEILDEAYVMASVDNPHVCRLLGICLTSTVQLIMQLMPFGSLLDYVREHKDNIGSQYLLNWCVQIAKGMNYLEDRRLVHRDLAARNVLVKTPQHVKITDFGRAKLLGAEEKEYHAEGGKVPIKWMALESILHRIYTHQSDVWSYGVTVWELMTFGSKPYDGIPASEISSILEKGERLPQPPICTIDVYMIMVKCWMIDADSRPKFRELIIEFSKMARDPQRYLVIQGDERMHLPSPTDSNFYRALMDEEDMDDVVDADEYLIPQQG
Description: 5 μL of EGFR enzyme form in assay buffer (50 mM HEPES pH 7.3, 10 mM MgCl2, 1 mM EGTA, 0.01% Tween 20, 2 mM DTT) are dispensed into columns 1-23, than 5 μL of ATP and ULight-poly-GT substrate (PerkinElmer; TRF0100-M) mix in assay buffer is added to all wells (final assay concentration of the ULight-poly-GT substrate 200 nM). Each of the different EGFR enzyme form assays is available at high ATP levels (final assay concentration 100 μM). After 90 minutes incubation at room temperature 5 μL EDTA (final assay concentration 50 mM) and LANCE Eu-anti-P-Tyr (PT66) antibody (PerkinElmer, AD0069) (final assay concentration 6 nM) mix are added to stop the reaction and start the binding of the antibody. […] Each plate contains 16 wells of a negative control (diluted DMSO instead of test compound; w EGFR enzyme form; column 23) and 16 wells of a positive control (diluted DMSO instead of test compound; w/o EGFR enzyme form; column 24). Negative and positive control values are used for normalization and IC50 values are calculated and analysed using a 4 parametric logistic model.

For `COc1ccncc1-c1cc(C(=O)/N=c2\[nH]c3cc(C4CCN(C(C)=O)CC4)ccc3n2CC(C)(C)O)ccn1` [US11174245, # I-031], the IC50 (usually the concentration needed to halve the response being measured) is 3 nM.
